This is an account of results in article PMC9104152, “Phosphoproteomics Unravel HBV Triggered Rewiring of Host Phosphosignaling Events” (International Journal of Molecular Sciences, 2022).

The subject of one series is HepG2-NTCP cells. In words: Cytotoxicity assay (Cell-titer-GLO Luminescent Cell Viability Assay). Format: cell-based, human. The protocol:
(§1) The IC50 of kinase inhibitors was determined using the Cell-titer-GLO Luminescent Cell Viability Assay kit (Promega, Madison, WI, USA) according to the recommendations from the manufacturer. Briefly, 10,000 HepG2-NTCP cells were seeded into a 96-well plate before treatment with various kinase inhibitor concentrations. Cell viability was assayed at 24 h post-treatment.

Series [1] relates to HBV infection in HepG2-NTCP cells. In words: HBV pgRNA level by real-time qPCR in kinase inhibitor treated HBV infected HepG2-NTCP. In kind it is cell-based, Hepatitis B virus. The conditions noted are these: for HBV pgRNA Fold change (Treated/DMSO) / effect on pgRNA level (in words): 1 µM; for effect on pgRNA level (in words): both four dpi and seven dpi. The source says: (§2) HBV were generated from a stable transfected hepablastoma cell line (Hep38.7) that expresses HBV as described previously. Briefly, Hep38.7 (tet-off) cells were induced to produce HBV particles through tetracycline withdrawal. Twelve days after tetracycline removal, culture media containing HBV were harvested and filtered through a 0.22 µm polyethersulfone (PES) membrane filter (Corning, New York, NY, USA). The virus supernatant was then concentrated using a heparin column and eluted with high salt, followed by overnight dialysis in phosphate-buffered saline (PBS). Real-time quantitative PCR was used to quantify the genome copy number of the HBV DNA. For infection, HepG2-NTCP cells at 70% confluence 1-day post-seeding were first treated with synchronisation medium consisting of complete medium with 3% DMSO and 500 µM L-Mimosin for 24 h. the cells were then incubated for 30 min with complete medium containing 800 µM of EGTA at 37 °C in a humidified 5% CO2 incubator. After the removal of EGTA-containing medium, the cells were infected with HBV at a multiplicity of infection (MOI) of 3000 in the presence of 4% PEG 8000 and 2.5% DMSO in DMEM/F12 medium supplemented with 2% FBS for 24 h. For the mock infection, cells were incubated for 24-hour in 4% PEG 8000, 2.5% DMSO in DMEM/F12 medium supplemented with 2% FBS. Upon virus removal followed by washing with PBS four times, HBV-infected cells were cultured in post-infection medium consisting of DMEM/F12 medium with 2% FBS and 1% DMSO. The post-infection medium was replaced at four days post-infection (dpi) and infected cells were harvested at day seven dpi. For phosphoproteome analysis, five biological replicates each of mock and HBV-infected HepG2-NTCP were used.
Total RNA was extracted using the RNeasy Mini Kit (Qiagen, Hilden, Germany) and digested with DNase according to the manufacturer’s protocol. For cDNA synthesis, 250–400 ng of total RNA was reverse transcribed with the iScript cDNA Synthesis Kit (Bio-Rad, Hercules, CA, USA) following the manufacturer’s protocol. cDNA was adjusted to 5 ng/µL using nuclease-free water and 2 μL of cDNA per reaction was used for qPCR analysis. Total DNA was extracted from the cells using the DNeasy Blood and Tissue Kit (Qiagen, Hilden, Germany) according to the manufacturer’s protocol.
To determine pgRNA level after HBV infection, HBV pgRNA was quantified by real-time qPCR using two HBV-specific primers: pgRNA-Forward, 5′-[…]-3′, and pgRNA-Reverse, 5′-[…]-3′ [49]. The housekeeping gene, GAPDH, was amplified using GAPDH forward primer 5′-[…]-3′ and GAPDH reverse primer 5′-[…]-3′. The relative fold change of pgRNA between conditions was determined using the ΔΔct method. Real-time qPCR was performed with iTaq Universal SYBR Green Supermix (Bio-Rad, Hercules, CA, USA). To determine the copy number of intracellular cccDNA, a probe-based qPCR approach was used. cccDNA was amplified using cccDNA forward primer 5′-[…]-3′ and cccDNA reverse primer 5′-[…]-3′. The Taqman probe 56, FAM/[…]/ZEN/[…]/3IABkFQ was used. The cccDNA copy number was determined using a standard curve approach with a 10× serial-diluted cccDNA template, starting from 10ng (Standard rang 1 fg to 1 ng). The reaction was carried out using the Luna Univeral Probe qPCR mix (NEB, Ipswich, MA, USA). To determine the level of HBeAg secretion, the HBeAg CLIA kit (Autobio diagnostic, Zhengzhou, China) was used. This assay was performed on 50 µL of medium harvested at four or seven dpi. All experiments were performed in triplicates and repeated twice for two additional biological replicates. The p-value was calculated using Student’s t-test (two-tailed, * p-value < 0.05, ** p-value < 0.01).
HBV infection on HepG2-NTCP was carried out as described earlier. At one dpi, the kinase inhibitors (Table 1) were added to the post-infection medium after the washing and removal of viruses containing infection medium. […]
(In qPCR the cycle at which signal appears reflects the starting amount.)

Another series addresses CDK2. The settings on record: target CDK2; reported value, no reference given; cited from earlier work.
Another series addresses CDK5. The settings on record: target CDK5; reported value, no reference given; cited from earlier work.
The test system of series [2] is HBV infection in HepG2-NTCP cells. In words: Intracellular cccDNA by probe-based qPCR in kinase inhibitor treated HBV infected HepG2-NTCP. Format: cell-based. The settings on record: 1 µM.
Text: as §2
Total RNA was extracted using the RNeasy Mini Kit (Qiagen, Hilden, Germany) and digested with DNase according to the manufacturer’s protocol. For cDNA synthesis, 250–400 ng of total RNA was reverse transcribed with the iScript cDNA Synthesis Kit (Bio-Rad, Hercules, CA, USA) following the manufacturer’s protocol. cDNA was adjusted to 5 ng/µL using nuclease-free water and 2 μL of cDNA per reaction was used for qPCR analysis. […]
To determine pgRNA level after HBV infection, HBV pgRNA was quantified by real-time qPCR using two HBV-specific primers: pgRNA-Forward, 5′-[…]-3′, and pgRNA-Reverse, 5′-[…]-3′ [49]. […] The relative fold change of pgRNA between conditions was determined using the ΔΔct method. […] The cccDNA copy number was determined using a standard curve approach with a 10× serial-diluted cccDNA template, starting from 10ng (Standard rang 1 fg to 1 ng). […] The p-value was calculated using Student’s t-test (two-tailed, * p-value < 0.05, ** p-value < 0.01). […]

Series [3] has the same test system. In words: HBeAg secretion (HBeAg CLIA kit) in kinase inhibitor treated HBV infected HepG2-NTCP. The settings on record: 1 µM. In kind it is cell-based.
Text: as §2
To determine pgRNA level after HBV infection, HBV pgRNA was quantified by real-time qPCR using two HBV-specific primers: pgRNA-Forward, 5′-[…]-3′, and pgRNA-Reverse, 5′-[…]-3′ [49]. The housekeeping gene, GAPDH, was amplified using GAPDH forward primer 5′-[…]-3′ and GAPDH reverse primer 5′-[…]-3′. The relative fold change of pgRNA between conditions was determined using the ΔΔct method. Real-time qPCR was performed with iTaq Universal SYBR Green Supermix (Bio-Rad, Hercules, CA, USA). To determine the copy number of intracellular cccDNA, a probe-based qPCR approach was used. cccDNA was amplified using cccDNA forward primer 5′-[…]-3′ and cccDNA reverse primer 5′-[…]-3′. The Taqman probe 56, FAM/[…]/ZEN/[…]/3IABkFQ was used. The cccDNA copy number was determined using a standard curve approach with a 10× serial-diluted cccDNA template, starting from 10ng (Standard rang 1 fg to 1 ng). […] The p-value was calculated using Student’s t-test (two-tailed, * p-value < 0.05, ** p-value < 0.01). […]

The nature of series [4]: Cytotoxicity assay (Cell-titer-GLO Luminescent Cell Viability Assay). In kind it is cell-based, human. The settings on record: human, HepG2-NTCP cells; HepG2-NTCP, cell viability 24 h post-treatment. The protocol:
as §1

The target of a further series is CLKs. The settings on record: target CLKs; reported value, no reference given; cited from earlier work.
The target of the next series is CDK1. The conditions noted are these: target CDK1; reported value, no reference given; cited from earlier work.

Each structure is given as a SMILES string. Where only a bound is given, the exact number is not on record here.

One may read the IC50 as the concentration at which inhibition is half-maximal. `CN(C)c1nc2c(Br)c(Br)c(Br)c(Br)c2[nH]1` [DMAT] displayed a half-inhibitory concentration (IC50) with HepG2-NTCP cells greater than 500 µM. Further, the “effect on pgRNA transcription (in words)” value in series [1] (10 µM, both four and seven dpi) was “reduction of pgRNA transcription”.

The Ki is the dissociation constant of the complex between target and ligand, obtained from inhibition or displacement. In the series on HepG2-NTCP cells, `Nc1cc(Nc2ccc(S(N)(=O)=O)cc2)ncn1` [PNU112455A11] yielded an IC50 greater than 500 µM. The inhibition constant (Ki) on CDK2 was 3.2 µM; at CDK5, 3.6 µM.

Turning to `Cn1cc(-c2ccc3occ(-c4ccccc4-c4ccccc4)c3n2)cn1` [MU140], the “HBV pgRNA Fold change (Treated/DMSO)” value is 1.014 in [1] (4dpi) and 1.114 in [1] (7dpi). In series [1], the “effect on pgRNA level (in words)” value is listed as “no such reduction”. The results for the “Intracellular cccDNA Fold change (Treated/DMSO)” value in series [2] (4dpi) and in [2] (7dpi) were 0.894 and 0.930, respectively. For the same compound, the entries for the “HBeAg Titer Fold change (Treated/DMSO)” value in series [3] (4dpi) and in series [3] (7dpi) were 0.904 and 0.993, respectively.

In turn, `Cn1cc(-c2ccc3occ(-c4cccc(-c5ccncc5)c4)c3n2)cn1` [MU1210] displayed a 50% inhibitory concentration (IC50) at 24 h in series [4] of 16.7 µM. Moreover, the “HBV pgRNA Fold change (Treated/DMSO)” value in [1] (4dpi) turned out to be 0.406; in series [1] (7dpi), 0.709. Besides, in [1], the “effect on pgRNA level (in words)” value is on record as “reduction in the pgRNA level”. The “Intracellular cccDNA Fold change (Treated/DMSO)” value in series [2] (4dpi) turned out to be 0.678; in series [2] (7dpi), 0.479. For the same compound, the figures for the “HBeAg Titer Fold change (Treated/DMSO)” value in series [3] (4dpi) and in [3] (7dpi) were 0.415 and 0.105, respectively. Moreover, the inhibition constant (Ki) at CLKs was 0.023 µM.

Regarding `O=C1NC(=NCc2cccs2)S/C1=C\c1ccc2ncccc2c1` [RO-3306], at CDK1, the Ki was 0.035 µM.
